This is an account of results in PMC9182188, “Isoquinoline Alkaloid Contents in Macleaya cordata Extracts and Their Acetylcholinesterase and Butyrylcholinesterase Inhibition” (Molecules, 2022).

The structures appear in SMILES notation. ≈ marks a conversion by molar mass, not a printed value. Where two headings read alike, the source gives them in different places.

For data set [1], the target named is T1, acetylcholinesterase (Homo sapiens, UniProt P22303).
T1 construct: purchased Sigma-Aldrich
It counts as biochemical. The conditions noted are these: alkaloid standards; HPLC-DAD; 0.2 U/mL enzyme; 15 min at 37 °C; pH 7.8. The method, then: For determination of acetylcholinesterase inhibitory activity of alkaloid standards and plant extracts by HPLC analysis was performed on the same apparatus as determination of alkaloid contents on Polar RP column with mobile phase A containing methanol and 0.0025 M diethylamine, mobile phase B containing acetate buffer at pH 3.8 and 0.0025 M diethylamine, mobile phase in gradient elution: 0–15 min, 10% A; 15–30 min, 10–70% A; 30–60 min, 70% A. Flow rate was 1 mL/min.
Samples for determination of acetylcholinesterase inhibitory activity were prepared by addition of 50 µL of acetylthiocholine iodide, 50 µL of 5′-dithiobis-(2-nitrobenzoic acid), 50 µL of acetylcholinesterase at concentration 2 U/mL and phosphate buffer at pH 7.8 to obtaining 500 µL of final solution. […] All components were mixed and samples were incubated for 15 min at 37 °C. Samples were filtrated by syringe filter (CHROMAFIL Xtra, PVDF-29/25 0.20 µm) and injected into HPLC system. […] All experiments were performed in triplicates.

The target in data set [2] is T2, butyrylcholinesterase (Homo sapiens, UniProt P06276).
T2 construct: purchased Sigma-Aldrich
As to the kind of experiment: Butyrylcholinesterase inhibitory activity by HPLC-DAD (Ellman reaction product TNBA). Format: biochemical. To be noted: alkaloid standards, 0.2 U/mL enzyme, 15 min at 37 °C. Here is the method: For determination of butyrylcholinesterase inhibitory activity of alkaloid standards and plant extracts by HPLC analysis was performed on the same apparatus, column and mobile phase as determination of acetylcholinesterase inhibitory activity.
Samples for determination of butyrylcholinesterase inhibitory activity were prepared by addition of 50 µL of butyrylthiocholine iodide, 50 µL of 5′-dithiobis-(2-nitrobenzoic acid), 50 µL of butyrylcholinesterase at concentration 2 U/mL and phosphate buffer at pH 7.8 to obtaining 500 µL of final solution. […] All components were mixed and samples were incubated for 15 min at 37 °C. Samples were filtrated by syringe filter (CHROMAFIL Xtra, PVDF-29/25 0.20 µm) and injected into HPLC system. […] All experiments were performed in triplicates.
In general terms: DTNB colorimetry detects thiols as they appear.

Data set [3] has as its system swine or human cell lines. To be noted: cited from earlier work.
The target in data set [4] is T1, acetylcholinesterase. As to the kind of experiment: Kinetic analysis of acetylcholinesterase inhibition (Lineweaver-Burk and secondary plots). It counts as biochemical. The conditions noted are these: for type of acetylcholinesterase inhibition: Lineweaver-Burk and Dixon plots; for Ki: estimated from slope of Lineweaver-Burk plots vs inhibitor concentration, read-out: Ki (inhibition constant), acetylcholinesterase. An excerpt: The type of inhibition and inhibition constants (Ki value) of the compounds were investigated using Lineweaver–Burk and Dixon plots (Figure 5 and Figure 6).
The Ki values were estimated by plotting the slope of the individual Lineweaver–Burk plots versus the inhibitor concentrations (Figure 5B and Figure 6B).
For determination of 5-thio-2-nitro-benzoic acid, the product of reaction between the thiocholine with Ellman’s reagent, HPLC-DAD method was applied. The chromatographic analysis was performed in the same conditions as was used for determination of cholinesterase activity described above. Quantification of 5-thio-2-nitro-benzoic acid was performed by a calibration curve method. 5-thio-2-nitrobenzoic acid was prepared from 5′-dithiobis-(2-nitrobenzoic acid) as described by Landino et al.. 0.5 g of 5′-dithiobis-(2-nitrobenzoic acid) in 25 mL 0.5 M Tris–HCl, pH 8.8, was treated with 2.5 mL β-mercaptoethanol. The pH of the solution was adjusted to 1.5 with 6M HCl. 5-thio-2-nitro-benzoic acid was formed after 6–8 h at 4 °C. The crystals of -thio-2-nitro-benzoic acid were filtered and washed with cold 0.1 M HCl. Types of inhibition were determined by the graphical analysis of Lineweaver–Burk plots and its secondary plots.

Another data set concerns pig livers. The conditions noted are these: 32P-post-labeling assay; cited from earlier work.
The target of data set [5] is T2, butyrylcholinesterase. To be noted: modified Ellman's method; read-out: IC50 against butyrylcholinesterase; cited from earlier work.
Data set [6] has as its target T1, acetylcholinesterase. To be noted: modified Ellman's method; read-out: IC50 against acetylcholinesterase; cited from earlier work.
The mark [7] stands for this setting: pH 7.8, read-out: IC50 values Butyrylcholinesterae.
Where [8] appears, read: pH 7.8, read-out: IC50 values Butyrylcholinesterae (μg/mL) (converted).

T2 sequence (P06276 29-602): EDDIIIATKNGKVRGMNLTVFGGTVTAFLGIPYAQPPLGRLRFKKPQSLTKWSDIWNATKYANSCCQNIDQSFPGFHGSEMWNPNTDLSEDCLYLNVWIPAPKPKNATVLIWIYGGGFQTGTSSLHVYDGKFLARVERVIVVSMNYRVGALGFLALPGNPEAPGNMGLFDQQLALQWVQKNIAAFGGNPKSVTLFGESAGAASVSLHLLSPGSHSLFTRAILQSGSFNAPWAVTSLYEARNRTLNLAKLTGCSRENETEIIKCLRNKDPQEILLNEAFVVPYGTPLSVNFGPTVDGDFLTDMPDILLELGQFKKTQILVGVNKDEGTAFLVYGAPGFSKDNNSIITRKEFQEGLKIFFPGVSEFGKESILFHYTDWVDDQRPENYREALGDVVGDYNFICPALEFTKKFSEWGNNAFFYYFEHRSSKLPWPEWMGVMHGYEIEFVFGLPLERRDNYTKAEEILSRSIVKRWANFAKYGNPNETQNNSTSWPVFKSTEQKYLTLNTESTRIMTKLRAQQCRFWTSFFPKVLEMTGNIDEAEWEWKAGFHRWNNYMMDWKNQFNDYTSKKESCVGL
T1 sequence (P22303 32-614, species assumed): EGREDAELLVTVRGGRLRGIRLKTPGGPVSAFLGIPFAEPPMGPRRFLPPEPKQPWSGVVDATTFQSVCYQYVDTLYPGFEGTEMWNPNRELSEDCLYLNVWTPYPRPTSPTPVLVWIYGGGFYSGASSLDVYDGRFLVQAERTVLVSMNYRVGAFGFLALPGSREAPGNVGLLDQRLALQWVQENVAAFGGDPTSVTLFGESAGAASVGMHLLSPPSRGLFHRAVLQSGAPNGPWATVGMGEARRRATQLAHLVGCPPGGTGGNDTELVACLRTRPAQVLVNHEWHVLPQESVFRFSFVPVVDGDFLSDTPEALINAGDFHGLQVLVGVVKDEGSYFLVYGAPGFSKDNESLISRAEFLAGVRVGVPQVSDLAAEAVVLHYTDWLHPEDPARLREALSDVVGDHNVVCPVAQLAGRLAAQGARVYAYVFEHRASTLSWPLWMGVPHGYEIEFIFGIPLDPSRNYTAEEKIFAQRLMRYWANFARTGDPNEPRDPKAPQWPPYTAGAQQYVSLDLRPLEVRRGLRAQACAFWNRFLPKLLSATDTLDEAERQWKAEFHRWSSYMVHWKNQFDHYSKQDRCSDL

In the case of `CN1CCc2cc3c(cc2C(=O)Cc2ccc4c(c2C1)OCO4)OCO3` [Protopine, protopine], the “IC50 values Acetylcholinesterase” value against acetylcholinesterase [1] was determined as 24.67 µg/mL (≈ 69.8 µM). The IC50 on butyrylcholinesterase [2] (IC50 values Butyrylcholinesterae (μM), pH 7.8) was 52.8 ± 4.81 µM; against butyrylcholinesterase [2] (IC50 values Butyrylcholinesterae (μg/mL), pH 7.8), 52.8 µM.
Take `C[n+]1cc2c3c(ccc2c2ccc4cc5c(cc4c21)OCO5)OCO3` [Sanguinarine, sanguinarine]: the toxicity result in data set [3] is given as “low toxicity”. For the same compound, the IC50 on acetylcholinesterase [1] is 5570 ± 470 nM; on butyrylcholinesterase [2] (setting [7]), 9.82 ± 0.91 µM; on butyrylcholinesterase [2] (setting [8]), 9.81 µM. Besides, the “type of acetylcholinesterase inhibition” value on acetylcholinesterase [4] is listed as “noncompetitive”. Besides, the inhibitory constant (Ki) on acetylcholinesterase [4] was 200 nM. For the same compound, in the data set on pig livers, the DNA adducts result is given as “no DNA adducts”.
For `COc1ccc2c(c[n+](C)c3c4cc5c(cc4ccc23)OCO5)c1OC` [Chelerythrine, chelerythrine], in data set [3], the toxicity result is reported as “low toxicity”. The IC50 was 3550 nM on butyrylcholinesterase [5]; 720 ± 80 nM at acetylcholinesterase [1]; 1030 nM on acetylcholinesterase [6]; 2.15 ± 0.19 µM at butyrylcholinesterase [2] (setting [7]); 2.15 µM at butyrylcholinesterase [2] (setting [8]). At acetylcholinesterase [4], the “type of acetylcholinesterase inhibition” value is “competitive”. In addition, the Ki at acetylcholinesterase [4] is 180 nM. Also, the DNA adducts result in the data set with pig livers was “no DNA adducts”.

As usually defined, the Ki is a measure of affinity in units of concentration, obtained from inhibition or displacement.
